Literature values as cited in patent US6821541B2, “Anaerobic tea steeper and method of use” (priority 2002, dated 2004).
Read-outs that look alike come from different tables or passages of the source. Blank lines part the entries; values can stand above or below the molecule they belong to.

Key:
[1] = test system: canine lymphoma (lymphosarcoma); details: dogs with lymphoma
[2] = for stability in tea drinks: room temperature

Molecule: COc1cccc2c1C(=O)c1c(O)c3c(c(O)c1C2=O)C[C@@](O)(C(=O)CO)C[C@@H]3O[C@H]1C[C@H](N)[C@H](O)[C@H](C)O1 [Doxorubicin]
duration of remission ([1]; drug alone, guideline value): 18-29 weeks

Molecule: C[C@]12C=CC(=O)C=C1CC[C@@H]1[C@@H]2C(=O)C[C@@]2(C)[C@H]1CC[C@]2(O)C(=O)CO [Prednisone]
duration of remission ([1]; guideline values): about 30 days

Molecule: Oc1cc(O)c2c(c1)O[C@H](c1ccc(O)c(O)c1)[C@H](O)C2 [EC, (−) epicatechin]
stability in tea drinks [2]: generally stable

The remaining lines, values ahead:

stability in tea drinks [2]: generally stable
Molecule: O=C(O[C@@H]1Cc2c(O)cc(O)cc2O[C@@H]1c1ccc(O)c(O)c1)c1cc(O)c(O)c(O)c1 [ECG, (−) epicatechin gallate]

stability in aqueous solution ([2]; 4° C., 24 hours, pH 3-9): stable
level remaining after degradation ([2]; 24 hours at 50° C. and pH 5): below 80 % of the initial concentration
stability in tea drinks [2]: generally stable
Molecule: (−) epigallocatechin gallate [EGCG]
